Data on 21 compounds can be found in patent US20130040908A1, “SUBSTITUTION DERIVATIVES OF N6-BENZYLADENOSINE-5' -MONOPHOSPHATE, METHODS OF PREPARATION THEREOF, USE THEREOF AS MEDICAMENTS, AND THERAPEUTIC PREPARATIONS CONTAINING THESE COMPOUNDS” (BIOAPEX, S.R.O., priority 2010, published 2013).

For assay [1], the system named is K-562 (human erythroleukemia). The assay can be described thus: Calcein AM cytotoxicity assay, K-562. The class given is cell-based. As to conditions: K-562, 72 hours. An excerpt:
(§1) Because toxic compounds negatively influence metabolic processes in cells, many standard cytotoxicity assays are based on measurement of metabolisation rate of various artificial substrates. Resulting product is then quantified e.g. by means of spectrometry. The assays can be easily modified for use in 96-well plates. For evaluation of cytotoxic effect of the novel substituted 9-substituted cytokinin derivatives of this invention, a microtiter assay based on quantification of metabolisation of Calcein AM was used. The assay is widely used in drug screening programs and in chemosensitivity testing. In the living cells, Calcein AM is enzymatically hydrolysed and accumulation of resulting calcein is manifested by green fluorescence.
(§2) Normal human fibroblasts BJ were used as a control for routine screening of the compounds. The cells were kept in Nunc/Corning 80 cm^2 plastic bottles and grown in cell culture medium (DMEM containing 5 g/l glucose, 2 mM glutamine, 100 U/ml penicillin, 100 μg/ml streptomycine, 10% fetal bovine serum and sodium hydrogencarbonate), the compounds were prepared according to the procedure of the present invention.
(§3) The cell suspensions were prepared and diluted according to the particular cell type and the expected target cell density (2.500-30.000 cells per well based on cell growth characteristics) and pippetted (80 μl) into 96-well plates. […] Tested compound was added in total volume of 20 μl of water at time zero. Usually, test compound was evaluated at six 3-fold dilutions. […] All drug concentrations were tested in triplicates. […] At the end of incubation period Calcein AM in PBS was added into final concentration of 1 μg/ml. After another 1 hour of incubation fluorescence (FD) was measured with the Labsystem FIA Reader Fluoroscan Ascent (UK). Growth inhibition (GI) was estimated using the following equitation: GI=(mean FDdrug exposed wells−mean FDblank)/(mean FDcontrol wells−mean FDblank)×100%.

The test system of assay [2] is CEM (T-lymphoblastoid leukemia). The assay can be described thus: Calcein AM cytotoxicity assay, CEM. The class given is cell-based. As to conditions: 72 hours.
Excerpt: as §1, §2, §3

Assay [3] relates to HL-60 (promyelocytic leukemia). As to the kind of experiment: Calcein AM cytotoxicity assay, HL60. It is filed as cell-based, human. As to conditions: HL60, 72 hours.
Excerpt: as §1, §2, §3

For assay [4], the system named is Human lymphocytes. As to the kind of experiment: Immunosuppressive activity, 3H-thymidine incorporation in concanavalin A activated lymphocytes. The class given is cell-based. As to conditions: 72 hours, [3H]-TdR. The source says:
One of the most important parameters of specific cellular immunity is the proliferative response of lymphocytes to antigens or polyclonal mitogens. The majority of normal mammalian peripheral lymphocytes comprise resting cells. Antigens or nonspecific polyclonal mitogens have the capacity to activate lymphoid cells and this is accompanied by dramatic changes of intracellular metabolism (mitochondrial activity, protein synthesis, nucleic acids synthesis, formation of blastic cells and cellular proliferation). […] Variety of in vitro assays was developed to measure proliferative response of lymphocytes. The most commonly used is ^3H-thymidine incorporation method.
During cell proliferation, DNA has to be replicated before the cell is divided into two daughter cells. This close association between cell doublings and DNA synthesis is very attractive for assessing cell proliferation. If labelled DNA precursors are added to the cell culture, cells that are about to divide incorporate the labelled nucleotide into their DNA. Traditionally, those assays usually involve the use of radiolabelled nucleosides, particularly tritiated thymidine ([^3H]-TdR). The amount of [^3H]-TdR incorporated into the cellular DNA is quantified by liquid scintillation counting. Human heparinized peripheral blood was obtained from healthy volunteers by cubital vein punction. The blood was diluted in PBS (1:3) and mononuclear cells were separated by centrifugation in Ficoll-Hypaque density gradient (Pharmacia, 1.077 g/ml) at 2200 rpm for 30 minutes. Following centrifugation, lymphocytes were washed in PBS and resuspended in cell culture medium (RMPI 1640, 2 mM glutamine, 100 U/ml penicillin, 100 μg/ml streptomycin, 10% fetal calf serum and sodium bicarbonate).
The cells were diluted at target density of 1.100.000 cells/ml and were added by pipette (180 μl) into 96-well microtiter plates. Four-fold dilutions of the intended test concentration were added at time zero in 20 μl aliquots to the microtiter plate wells. Usually, test compound was evaluated at six 4-fold dilutions. In routine testing, the highest well concentration was 266.7 μM. All drug concentrations were examined in duplicates. All wells with exception of unstimulated controls were activated with 50 of concanavalin A (25 μg/ml). Incubations of cells with test compounds lasted for 72 hours at 37° C., in 5% CO2 atmosphere and 100% humidity. At the end of incubation period, the cells were assayed by using the [^3H]-TdR:
Cell cultures were incubated with 0.5 μCi (20 μl of stock solution 500 μCi/ml per well for 6 hours at 37° C. and 5% CO2. The automated cell harvester was used to lyse cells in water and adsorb the DNA onto glass-fiber filters in the format of microtiter plate. The DNA incorporated [^3H]-TdR was retained on the filter while unincorporated material passes through. The filters were dried at room temperature overnight, sealed into a sample bag with 10-12 ml of scintillant. The amount of [^3H]-TdR present in each filter (in cpm) was determined by scintillation counting in a Betaplate liquid scintillation counter. The effective dose of immunosuppressant (ED) was calculated using the following equation: ED=(CCPMdrug exposed well/mean CCPMcontrol wells)×100%. The ED50 value, the drug concentration inhibiting proliferation of 50% of lymphocytes, was calculated from the obtained dose response curves.

Assay [5] relates to MCF-7 (breast carcinoma). The assay can be described thus: Calcein AM cytotoxicity assay, MCF7. It is filed as cell-based. As to conditions: MCF7, 72 hours.
Excerpt: as §1, §2, §3

Consider `O=P(O)(O)OC[C@H]1O[C@@H](n2cnc3c(NCc4ccc(F)cc4Cl)ncnc32)[C@H](O)[C@@H]1O` [2-chloro-4-fluorobenzylamino, 6-(2-chloro-4-fluorobenzylamino)purine riboside-5′-monophosphate], for which the values for the GI50 in assay [1], in assay [2] and in assay [3] were 9.6 µM, 12.7 µM and 7.9 µM, respectively.

In the case of `O=P(O)(O)OC[C@H]1O[C@@H](n2cnc3c(NCc4cccc(Cl)c4O)ncnc32)[C@H](O)[C@@H]1O` [2-hydroxy-3-chlorobenzylamino, 6-(2-hydroxy-3-chlorobenzylamino)purine riboside-5′-monophosphate], in assay [4], the “Human lymphocytes ED50” value turned out to be 3.2 µM.

With `COc1ccc(CNc2ncnc3c2ncn3[C@@H]2O[C@H](COP(=O)(O)O)[C@@H](O)[C@H]2O)c(O)c1` [2-hydroxy-4-methoxybenzylamino, 6-(2-hydroxy-4-methoxybenzylamino)purine riboside-5′-monophosphate], in assay [4], the “Human lymphocytes ED50” value came to 2.1 µM.

Consider `O=P(O)(O)OC[C@H]1O[C@@H](n2cnc3c(NCc4ccc(O)c(O)c4)ncnc32)[C@H](O)[C@@H]1O` [3,4-dihydroxybenzylamino, 6-(3,4-dihydroxybenzylamino)purine riboside-5′-monophosphate], for which, in assay [4], the “Human lymphocytes ED50” value worked out at 9.4 µM.

As to `O=P(O)(O)OC[C@H]1O[C@@H](n2cnc3c(NCc4ccccc4F)ncnc32)[C@H](O)[C@@H]1O` [Compound 1, 6-(2-fluorobenzylamino)purine riboside-5′-monophosphate], the GI50 is 31.7 µM in assay [1], 3.9 µM in assay [2] and 3.3 µM in assay [3]. The “Human lymphocytes ED50” value in assay [4] is 6.3 µM.

Regarding `O=P(O)(O)OC[C@H]1O[C@@H](n2cnc3c(NCc4ccccc4Cl)ncnc32)[C@H](O)[C@@H]1O` [Compound 4, 6-(2-chlorobenzylamino)purine riboside-5′-monophosphate], the GI50 is 56 µM in assay [1], 1.9 µM in assay [2] and 1.4 µM in assay [3]. Moreover, the “Human lymphocytes ED50” value in assay [4] was 8.7 µM.

For the compound `O=P(O)(O)OC[C@H]1O[C@@H](n2cnc3c(NCc4cccc(Cl)c4)ncnc32)[C@H](O)[C@@H]1O` [Compound 5, 6-(3-chlorobenzylamino)purine riboside-5′-monophosphate], the GI50 is 23.4 µM in assay [1], 1.5 µM in assay [2] and 0.5 µM in assay [3]. The “Human lymphocytes ED50” value in assay [4] worked out at 3.2 µM.

On to `O=P(O)(O)OC[C@H]1O[C@@H](n2cnc3c(NCc4ccc(Cl)cc4)ncnc32)[C@H](O)[C@@H]1O` [Compound 6, 6-(4-chlorobenzylamino)purine riboside-5′-monophosphate], for which the values for the GI50 in assay [1] and in assay [2] were 12.6 µM and 4.9 µM, respectively. Also, the “Human lymphocytes ED50” value in assay [4] amounted to 3.3 µM.

As for `O=P(O)(O)OC[C@H]1O[C@@H](n2cnc3c(NCc4ccccc4Br)ncnc32)[C@H](O)[C@@H]1O` [Compound 7, 6-(2-bromobenzylamino)purine riboside-5′-monophosphate], the GI50 in assay [1] is 9.7 µM; in assay [5], 45.6 µM; in assay [2], 2.3 µM; in assay [3] it was 5.9 µM.

For the compound `O=P(O)(O)OC[C@H]1O[C@@H](n2cnc3c(NCc4cccc(Br)c4)ncnc32)[C@H](O)[C@@H]1O` [Compound 8, 6-(3-bromoobenzylamino)purine riboside-5′-monophosphate], the GI50 was 19.1 µM in assay [1], 5.1 µM in assay [2] and 4.2 µM in assay [3].

For the compound `O=P(O)(O)OC[C@H]1O[C@@H](n2cnc3c(NCc4ccc(Br)cc4)ncnc32)[C@H](O)[C@@H]1O` [Compound 9, 6-(4-bromobenzylamino)purine riboside-5′-monophosphate], the GI50 in assay [1] is 49.9 µM; in assay [2], 17.6 µM; in assay [3], 41.3 µM.

As for `COc1cccc(CNc2ncnc3c2ncn3[C@@H]2O[C@H](COP(=O)(O)O)[C@@H](O)[C@H]2O)c1` [Compound 16, 6-(3-methoxybenzylamino)purine riboside-5′-monophosphate], the GI50 in assay [1] was 122 µM; in assay [5] it was 48.1 µM; in assay [2], 4.6 µM; in assay [3], 5.1 µM.

`O=P(O)(O)OC[C@H]1O[C@@H](n2cnc3c(NCc4ccc(O)cc4)ncnc32)[C@H](O)[C@@H]1O` [Compound 23, 6-(4-hydroxybenzylamino)purine riboside-5′-monophosphate]: the GI50 in assay [2] is 19.4 µM; in assay [3], 9.7 µM.

For the compound `O=P(O)(O)OC[C@H]1O[C@@H](n2cnc3c(NCc4ccc(Cl)cc4Cl)ncnc32)[C@H](O)[C@@H]1O` [Compound 24], the GI50 was 81.5 µM in assay [1], 122 µM in assay [5], 81.2 µM in assay [2] and 72.4 µM in assay [3].

`COc1cccc(CNc2ncnc3c2ncn3[C@@H]2O[C@H](COP(=O)(O)O)[C@@H](O)[C@H]2O)c1OC` [Compound 31, 6-(2,3-dimethoxybenzylamino)purine riboside-5′-monophosphate]: in assay [3], the GI50 is 91 µM.

On to `COc1ccc(CNc2ncnc3c2ncn3[C@@H]2O[C@H](COP(=O)(O)O)[C@@H](O)[C@H]2O)c(OC)c1` [Compound 32, 6-(2,4-dimethoxybenzylamino)purine riboside-5′-monophosphate], for which the GI50 in assay [3] was 41 µM.

Regarding `COc1cc(CNc2ncnc3c2ncn3[C@@H]2O[C@H](COP(=O)(O)O)[C@@H](O)[C@H]2O)cc(OC)c1` [Compound 34, 6-(3,5-dimethoxybenzylamino)purine riboside-5′-monophosphate], the GI50 in assay [3] is 19.8 µM.

Consider `O=P(O)(O)OC[C@H]1O[C@@H](n2cnc3c(NCc4ccc(F)cc4F)ncnc32)[C@H](O)[C@@H]1O` [Compound 36, 6-(2,4-difluorobenzylamino)purine riboside-5′-monophosphate], for which the GI50 is 5.9 µM in assay [1], 4.9 µM in assay [2] and 2.8 µM in assay [3].

As for `O=P(O)(O)OC[C@H]1O[C@@H](n2cnc3c(NCc4cc(F)cc(F)c4)ncnc32)[C@H](O)[C@@H]1O` [Compound 37, 6-(3,5-difluorobenzylamino)purine riboside-5′-monophosphate], the figures for the GI50 in assay [2] and in assay [3] were 21.1 µM and 6.9 µM, respectively.

For the compound `O=P(O)(O)OC[C@H]1O[C@@H](n2cnc3c(NCc4ccc(F)c(F)c4F)ncnc32)[C@H](O)[C@@H]1O` [Compound 38, 6-(2,3,4-trifluorobenzylamino)purine riboside-5′-monophosphate], the GI50 in assay [2] was 58.6 µM; in assay [3], 11.3 µM.

With `O=P(O)(O)OC[C@H]1O[C@@H](n2cnc3c(NCc4c(F)ccc(F)c4F)ncnc32)[C@H](O)[C@@H]1O` [Compound 40, 6-(2,3,6-trifluorobenzylamino)purine riboside-5′-monophosphate], the concentration for 50% growth inhibition (GI50) in assay [3] is 11.3 µM.
